Test results from patent publication US20030134784A1, “Nucleic acids and corresponding proteins entitled 83P2H3 and CaTrF2E11 useful in treatment and detection of cancer” (priority 2000, published 2003).

Experiments:
[1] = system: 83P2H3/hCaT-expressing PC3 cell; test: ERK phosphorylation in response to ion channel activators (anti-phospho-ERK Western blotting); type: cell-based, human; conditions: hCaT-expressing PC3 cells grown in 0.1% FBS, treated for 5 min
Excerpt: (§1) FIG. 22. Mediation of ERK phosphorylation by hCaT via a variety of ion channel activators. Control and 83P2H3/hCaT-expressing PC3 cell were compared for their ability to induce ERK phosphorylation in response to ion channel activators known to regulate intracellular calcium levels in several cell types. […] Whole cell lysates were separated by SDS-PAGE and analyzed by Western blotting using an anti-phospho-ERK monoclonal antibody (New England Nuclear, Bedford, Mass.). Anti-ERK overlays were used to evaluate protein loading.
(§2) Many mammalian proteins have been reported to interact with signaling molecules and to participate in regulating signaling pathways (J Neurochem. 2001; 76:217-223). Using immunoprecipitation and Western blotting techniques, proteins are identified that associate with 83P2H3 and mediate signaling events. Several pathways known to play a role in cancer biology can be regulated by several of these genes, including phospholipid pathways such as P13K, AKT, etc, adhesion and migration pathways, including FAK, Rho, Rac-1, etc, as well as mitogenic/survival cascades such as ERK, p38, etc (Cell Growth Differ. 2000,11:279; J Biol Chem. 1999, 274:801; Oncogene 2000, 19:3003, J. Cell Biol. 1997, 138:913.). Using Western blotting techniques, the ability of 83P2H3 to regulate these pathways is examined. Cells expressing 83P2H3 and cells lacking these genes are either left untreated or stimulated with ions, channel activators, or antibodies. Cell lysates are analyzed using anti-phospho-specific antibodies (Cell Signaling, Santa Cruz Biotechnology) in order to detect phosphorylation and regulation of ERK, p38, AKT, P13K, PLC and other signaling molecules.

[2] = system: PC3-neo cells; test: as above; type: cell-based, human; conditions: PC3-neo cells grown in 0.1% FBS, treated for 5 min
Excerpt: as §1, §2

[3] = system: T helper lymphocytes; conditions: regardless of HLA type; cited from earlier work
[4] = system: HLA-DR; conditions: cited from earlier work

Row | Molecule | ERK phosphorylation [1] | ERK phosphorylation [2] | Stimulation of the response of T helper lymphocytes [3] | Binding to HLA-DR alleles [4]
1 | CCCCCCCCCCCCCC(=O)O[C@@H]1[C@@H](C)[C@@]2(O)[C@@H](C=C(CO)C[C@]3(O)C(=O)C(C)=C[C@@H]23)[C@@H]2C(C)(C)[C@]12OC(C)=O [PMA] | induced ERK phosphorylation | induced ERK phosphorylation | – | –
2 | C[C@H](CCC(=O)O)C[C@H](C)C[C@H](C)C(=O)/C=C(\O)[C@H](C)C[C@H](C)C/C=C/[C@@H](C)[C@@H](O)[C@@H](C)[C@@H](O)C[C@@H]1CC[C@@](C)([C@H]2CC[C@@](C)([C@@H](C)O)O2)O1 [ionomycin] | induced ERK phosphorylation | – | – | –
3 | LPA | induced ERK phosphorylation | – | – | –
4 | aKXVAAWTLKAAa | – | – | stimulate the response of T helper lymphocytes from most individuals | bind to most HLA-DR alleles
